{"source": "patent US9481713B2", "about": "“Self-assembling peptides incorporating modifications and methods of use thereof” (Massachusetts Institute of Technology, priority 2010, dated 2016)", "key": {"MMP-2": {"target": "T1, MMP-2 (Homo sapiens, UniProt P08253)", "T1 sequence (P08253 110-660)": "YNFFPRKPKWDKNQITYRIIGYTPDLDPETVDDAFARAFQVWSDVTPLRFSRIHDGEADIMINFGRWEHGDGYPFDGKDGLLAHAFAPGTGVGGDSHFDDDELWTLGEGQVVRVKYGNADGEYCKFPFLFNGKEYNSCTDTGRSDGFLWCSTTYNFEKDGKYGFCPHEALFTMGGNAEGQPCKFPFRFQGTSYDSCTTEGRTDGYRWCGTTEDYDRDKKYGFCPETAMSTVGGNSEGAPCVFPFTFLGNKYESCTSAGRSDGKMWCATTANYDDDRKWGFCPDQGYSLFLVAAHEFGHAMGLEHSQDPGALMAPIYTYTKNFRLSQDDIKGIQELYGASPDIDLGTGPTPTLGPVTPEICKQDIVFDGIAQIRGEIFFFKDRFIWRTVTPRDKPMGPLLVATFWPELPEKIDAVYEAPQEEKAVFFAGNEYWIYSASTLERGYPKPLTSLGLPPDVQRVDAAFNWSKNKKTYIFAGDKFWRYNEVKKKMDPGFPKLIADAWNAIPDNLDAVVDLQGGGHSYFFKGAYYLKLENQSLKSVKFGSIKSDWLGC", "settings": "reference 19b; cited from earlier work"}, "[1]": {"tested_on": "human periodontal ligament fibroblasts (HPDLF)", "test": "Fluorescent immunostaining of type I and type III collagen production on peptide scaffolds", "type": "cell-based", "settings": "six weeks cell culture, compared to RADA16 (FIG. 5)", "procedure": "(§1) Primary isolated human periodontal ligament fibroblasts were commercially obtained from Lonza Inc. (HPDLF, Walkersville, Md.) and routinely grown in the culture medium (SCGM, Walkersville, Md.) on regular cell culture flask. The cells were plated at 2×10^4 cells on the gel in the inserts. The culture medium was changed every three days. Additional growth factors were not used.\nAfter the cell fixation, the primary antibody for type I collagen (5% Anti-collagen type I, Millpore, Mass.) was added and incubated at 37° for 40 min, then washing six times with PBS with 1% BSA. The second antibody (0.5% Alexa fluor 488 goat anti-rabbit IgG, Invitrogen) was added and incubated at 37° for another 40 min, then washing as well. After that, the primary antibody for type III collagen (0.5% Anti-collagen type III, Millpore, Mass.) was added and incubated at 37° for 40 min, then washing. Finally, the second antibody (0.5% Alexa fluor 594 goat ant-mouse IgG, Invitrogen) was added and incubated at 37° for another 40 min. Nonspecific staining as a control was performed by omitting primary antibodies."}, "[2]": {"tested_on": "human periodontal ligament fibroblasts (HPDLF)", "test": "Periodontal ligament fibroblast migration into peptide scaffolds (confocal microscopy)", "type": "cell-based", "settings": "for fibroblast adhesion, proliferation and 3-D migration into scaffold: reconstructed confocal images", "procedure": "(§2) 1% RADA16 solution was obtained as PuraMatrix (3DM Inc./BD Bioscience). VEVK9, VEVK12 and the functionalized peptides were obtained from CPC Scientific (San Jose, Calif.) and dissolved in water at final concentration of 1% […]. The functionalized peptide solutions were then mixed with 1% RADA16, VEVK9 or VEVK12 solution at a ratio of 1:1. Each peptide solution was then loaded in the cell culture plate insert (BD Bioscience, Bedford, Mass.). The medium described below was added to induce hydrogel formation.\nas §1\n(§3) Following the experiments, the cells on the gel were fixed with 4% paraformaldehyde for 15 min and permeabilized with 0.1% Triton X-100 for 5 min at room temperature. Fluorescent Rhodamin phalloidin and SYTOX® Green (Molecular Probes, Eugene, Oreg.) were used for labeling F-actin and nuclei, respectively. Images were taken using a fluorescence microscope (Axiovert 25, ZEISS) or laser confocal scanning microscope (Olympus FV300).\nThe functionalized peptide was obtained from CPC Scientific (San Jose, Calif.) and dissolved in water at final concentration of 1% […] as well. The functionalized peptide solutions were then mix with 1% VEVK9 or VEVK12 solution. The each peptide solution was loaded in the cell culture plate insert (BD Bioscience, Bedford, Mass.). The medium described below was added to induce hydrogel formation."}, "[3]": {"tested_on": "Human gingival fibroblasts (HGF-1)", "test": "Gingival fibroblast attachment and migration on peptide scaffolds (selective cell reproduction)", "type": "cell-based", "settings": "Example 2 comparison study, HGF-1 (FIG. 6)", "procedure": "We tested the selective cell reproduction property of the functional scaffolds, using two periodontal cells, periodontal ligament fibroblasts and gingival fibroblasts.\nHuman gingival fibroblasts were commercially obtained from ATCC (HGF-1) and routinely grown in the culture medium (DMEM+10% FBS) on regular cell culture flask. The cells were plated at 2×10^4 cells on the gel in the inserts. The culture medium was changed every three days."}, "[4]": {"tested_on": "human periodontal ligament fibroblasts (HPDLF)", "test": "Periodontal ligament fibroblast attachment and proliferation on peptide scaffolds", "type": "cell-based", "settings": "periodontal ligament fibroblasts cultured for three weeks", "procedure": "as §2, §1, §3"}, "[5]": {"test": "Tapping mode AFM analysis of nanofiber formation", "type": "physicochemical", "settings": "aqueous solutions", "text": "VEVK9 and VEVK12 are simple repeating units of amino acids VEVK (Valine-Glutamate-Valine-Lysine) which self-assemble into a nanofiber structure. The self-assembling peptide VEVK9 was functionalized either with RGD, laminin cell adhesion motifs or an MMP cleavable motif in order to mimic extracellular matrix to enhance cell maintenance and function in cell cultures. The functionalized peptides vPRG, vYIG and vIKV were synthesized with the VEVK9 sequence plus an additional motif added to the C-terminus using solid phase synthesis. One motif contains two repetitions of the RGD sequence (PRGDSGYRGDS (SEQ ID NO: 15)), and the others are cell adhesion motifs of laminin (YIGSR (SEQ ID NO: 5), IKVAV (SEQ ID NO: 6)). Glycine residues were used between the self-assembling motif VEVKVEVKV (SEQ ID NO: 2) and the functional motif as a spaced linker to keep the flexibility of the functional peptides. The MMP-2 cleavable motif (PVGLIG (SEQ ID NO: 11)) was inserted between two VEVK units. In comparison to RADA16-I and its functionalized peptides, these peptides are short sequences, maximum 20 amino acids (in vPRG), and seem to be cost-effective. The peptides were solubilized in water at a concentration of 10 mg/ml (1%, w/v). The peptides readily undergo self-assembly to form soft hydrogels. Mixing with self-assembling peptide VEVK9 or VEVK12 facilitated self-assembly and gelation. […]"}}}
{"substance": "(RADA)3PVGLIG (RADA)3 (RADARADARADAPVGLIGRADARA)", "values": [{"measurement": "degradability by MMP-2", "setting": "MMP-2", "result": "degradable by MMP-2"}]}
{"substance": "Ac(RADA)4CONH2 (Ac-RADARADARADARADA-NH2) [RADA16, 1% peptide A solution; self assembling motif, obtained as PuraMatrix]", "values": [{"measurement": "type I and type III collagens production", "setting": "[1]", "result": "not to produce collagens"}, {"measurement": "periodontal ligament fibroblast attachment and migration", "setting": "[2]; Example 2 comparison study (FIG. 6)", "result": "did not show migration in both fibroblasts"}, {"measurement": "gingival fibroblast attachment and migration", "setting": "[3]", "result": "did not show migration in both fibroblasts"}]}
{"substance": "Ac-VEVKGPVGLIGVEVKCONH2 [vPVG]", "values": [{"measurement": "fibroblast adhesion, proliferation and 3-D migration into scaffold", "setting": "[2]", "result": "significant increases in fibroblast proliferation and migration"}]}
{"substance": "Ac-VEVKVEVKV-CONH2 (Ac-VEVKVEVKV-NH2) [VEVK9, 1% peptide E solution]", "values": [{"measurement": "fibroblast adhesion, proliferation and 3-D migration into scaffold", "setting": "[2]", "result": "Only a few fibroblasts adhered"}, {"measurement": "cell attachment and morphology", "setting": "[4]", "result": "sparse and have a rounded morphology"}]}
{"substance": "Ac-VEVKVEVKVEVK-CONH2 (Ac-VEVKVEVKVEVK-NH2) [VEVK12, 1% peptide F solution]", "values": [{"measurement": "formation of nanofibers", "setting": "[5]", "result": "formed nanofibers"}, {"measurement": "cell attachment and morphology", "setting": "[4]", "result": "sparse and have a rounded morphology"}]}
{"substance": "Ac-VEVKVEVKVGIKVAVCONH2 [vIKV]", "values": [{"measurement": "fibroblast adhesion, proliferation and 3-D migration into scaffold", "setting": "[2]", "result": "migrate into them in the same manner"}, {"measurement": "cell attachment and morphology", "setting": "[4]", "result": "good attachment and extension"}]}
{"substance": "Ac-VEVKVEVKVGPRGDSGYRGDSGCONH2 [vPRG]", "values": [{"measurement": "fibroblast adhesion, proliferation and 3-D migration into scaffold", "setting": "[2]", "result": "significant increases in fibroblast proliferation and migration"}, {"measurement": "cell attachment and morphology", "setting": "[4]", "result": "good attachment and extension"}]}
{"substance": "Ac-VEVKVEVKVGYIGSRCONH2 [vYIG]", "values": [{"measurement": "fibroblast adhesion, proliferation and 3-D migration into scaffold", "setting": "[2]", "result": "migrate into them in the same manner"}, {"measurement": "cell attachment and morphology", "setting": "[4]", "result": "good attachment and extension"}]}
